Data reported in US5583117A (priority 1993, dated 1996).

What was measured:
[1] = test system: central nervous system pathologies; conditions: brain edema, cranial trauma, cerebral ischemia, chronic cerebrovascular diseases, Parkinson's disease; cited from earlier work
[2] = cited from earlier work
[3] = in vivo, po
Procedure: Blood samples (0.5 ml) were withdrawn at intervals of 1, 2, 3, and 4 hours after ingestion of the compound and were processed for subsequent determination of plasma uridine content by HPLC. On a separate day, the same procedure was carried out, except that an equal molar dose (18 mg/kg--1.3 grams in a 70 kilogram subject) of uridine was ingested instead of the acyl derivative.

[4] = Bioavailability of uridine and acyl uridine derivatives in rats (plasma by HPLC); type: in vivo, male F344 rats; conditions: rat, intubation into stomach, 0.28 moles/kg (printed), for at least four hours following ingestion
Source text: Silastic catheters were implanted into the right jugular veins of anesthetized male F344 rats (Retired Breeders, 450-500 grams). After three days of recovery from surgery, the animals were placed in deep cylindrical cages, and their catheters were extended with a lengthened polyvinyl tubing, so that blood samples would be withdrawn without disturbing the rats. Basal blood samples were taken and the animals were divided into four groups, each containing four rats.

[5] = test system: adrenalin-induced myocardial necrosis; conditions: cited from earlier work; for mortality and myocardial function: ECG readings, biochemical findings, relative heart weight
isolated dog heart = conditions: cited from earlier work
brain = conditions: in vivo; cited from earlier work
[6] = test system: pyrimidine nucleoside phosphorylases; conditions: rat, in vivo; cited from earlier work
isolated rat heart = conditions: cited from earlier work
skeletal muscles = conditions: rat, in vivo; cited from earlier work
atrial tissue = conditions: in vitro; cited from earlier work
[7] = test system: tyrosine-alpha-ketoglutarate; conditions: alone or in various combinations; cited from earlier work
[8] = test system: isolated rat diaphragm muscle; conditions: cited from earlier work
adipose tissue = conditions: cited from earlier work
myocardial glycogen = conditions: cited from earlier work; for myocardial glycogen: intravenous infusion
liver function = conditions: in vivo; cited from earlier work
[9] = test system: adrenalin-induced myocardial dystrophy; conditions: rat, in vivo; cited from earlier work
[10] = test system: skeletal and cardiac muscle; conditions: cited from earlier work
[11] = test system: isolated, perfused rat liver; conditions: in a single passage; cited from earlier work
myocardium = conditions: pretreatment; 2 hours after aortic stenosis; cited from earlier work
[12] = cited from earlier work; remark: listed apart in the source
hepatocytes = conditions: cited from earlier work
isolated rabbit hearts = conditions: cited from earlier work
isolated rat hearts [13] = conditions: cited from earlier work
heart = conditions: cited from earlier work
[14] = test system: experimentally-induced seizures; conditions: intraperitoneal injection; cited from earlier work
isolated rat hearts [15] = conditions: reperfusion after low-flow ischemia; cited from earlier work

For `C[N+](C)(C)CCOP(=O)(O)OP(=O)([O-])OC[C@H]1O[C@@H](n2ccc(N)nc2=O)[C@H](O)[C@@H]1O` [CDP-choline, cytidine-diphosphocholine], the therapeutic efficacy [1] is given as “Therapeutic efficacy has been documented”, the “time of breakdown to cytidine and choline” value ([2]; intravenous injection) is given as ≤ 30 s and the “intact compound in circulation” value ([2]; oral) is given as “no intact CDP-choline enters the circulation”. For the same molecule, the “plasma cytidine and choline concentrations” value ([2]; oral) was “rise” and the degradation following administration ([2]; yielding cytidine, choline, and phosphate) was “very rapidly degraded”.

For `CC(=O)OC[C@H]1O[C@@H](n2ccc(=O)[nH]c2=O)[C@H](OC(C)=O)[C@@H]1OC(C)=O` [TAU, 2',3',5'-tri-O-acetyl uridine], the “plasma level of uridine vs equal molar dose of uridine” value [3] was “substantially higher”, the plasma uridine level [3] was “exceeded 10 micromolar” and the “time uridine levels sustained in the useful therapeutic range” value [3] was “at least four”. The “plasma levels of uridine vs equimolar dose of uridine” value [4] was “significantly higher for at least four hours”.

For `O=c1ccn([C@@H]2O[C@H](COP(=O)([O-])[O-])[C@@H](O)[C@H]2O)c(=O)[nH]1.[Na+].[Na+]` [UMP, Sodium uridine monophosphate], the “mortality and myocardial function” value [5] is given as “reduced mortality and improved myocardial function”, the “prophylactic effect vs potassium orotate” value ([5]; in vivo) is given as “more pronounced prophylactic effect” and the “resistance to adrenalin-induced myocardial necrosis” value ([5]; in vivo) is given as “increase the animal's resistance”.

In the case of `Nc1ncnc2c1ncn2[C@@H]1O[C@H](CO)[C@@H](O)[C@H]1O` [adenosine], the inotropic effect (isolated dog heart) is listed as “negatively inotropic”.

For `Nc1ccn([C@@H]2O[C@H](CO)[C@@H](O)[C@H]2O)c(=O)n1` [cytidine], the brain uptake (brain) is given as “not very readily taken up by the brain”, the inotropic effect (isolated dog heart) is given as “negatively inotropic” and the “specific activity of liver homogenates” value [6] is given as “increased”. For the same molecule, the “myocardial cytosine nucleotide levels” value (isolated rat heart; 30 minute supply of cytidine) was “significantly increased”, the “conversion of cytidine taken up into uridine nucleotides” value (isolated rat heart) was “Very little” and the “muscular concentrations of Krebs cycle intermediates” value (skeletal muscles) was “affect the muscular concentrations of Krebs cycle intermediates”.

For `O=C[C@H](O)[C@@H](O)[C@H](O)[C@H](O)CO` [glucose], the “contractability and extensibility of atrial tissue” value (atrial tissue) is listed as “restored”.

For `Nc1nc2c(ncn2[C@@H]2O[C@H](CO)[C@@H](O)[C@H]2O)c(=O)[nH]1` [guanosine], the inotropic effect (isolated dog heart) is given as “positive inotropic”.

For `C[C@]12CCC(=O)C=C1CC[C@@H]1[C@@H]2[C@@H](O)C[C@@]2(C)[C@H]1CC[C@]2(O)C(=O)CO` [hydrocortisone], the tyrosine-alpha-ketoglutarate activity [7] is given as “increase”.

In the case of `OC[C@H]1O[C@@H](n2cnc3c(O)ncnc32)[C@H](O)[C@@H]1O` [inosine], the glucose uptake [8] is listed as “stimulate glucose uptake”, the inotropic effect (isolated dog heart) is listed as “positive inotropic” and the lipolysis (adipose tissue) is listed as “inhibited lipolysis”.

For `CC(C)NCC(O)c1ccc(O)c(O)c1` (stereo not shown) [isoproterenol], the “cardiac glycogen stores, myocardial UTP and UDP-glucose levels” value (myocardial glycogen; isoproterenol) is listed as “depleted cardiac glycogen stores and reduced myocardial UTP and UDP-glucose levels”.

For `O=C([O-])c1cc(=O)[nH]c(=O)[nH]1.[K+]` [potassium orotate], the “mortality and myocardial function” value [5] is given as “reduced mortality and improved myocardial function” and the “resistance to adrenalin-induced myocardial necrosis” value ([5]; in vivo) is given as “increase the animal's resistance”.

In the case of `O=C[C@H](O)[C@H](O)[C@H](O)CO` [ribose], the myocardial glycogen (myocardial glycogen) is given as “restoration of myocardial glycogen”.

In the case of `Cc1cn([C@H]2C[C@H](O)[C@@H](CO)O2)c(=O)[nH]c1=O` [thymidine], the inotropic effect (isolated dog heart) is listed as “positive inotropic”.

For `O=c1ccn([C@@H]2O[C@H](COP(=O)(O)OP(=O)(O)O)[C@@H](O)[C@H]2O)c(=O)[nH]1` [uridine diphosphate], the “improvement of liver function” value (liver function) is given as “improve certain aspects of liver function”.

For `O=c1ccn([C@@H]2O[C@H](COP(=O)(O)O)[C@@H](O)[C@H]2O)c(=O)[nH]1` [uridine-5'-monophosphate], the “protective effect in adrenalin-induced myocardial dystrophy” value [9] is listed as “protective effect”.

For `O=C(O)[C@H]1O[C@H](OP(=O)(O)OP(=O)(O)OC[C@H]2O[C@@H](n3ccc(=O)[nH]c3=O)[C@H](O)[C@@H]2O)[C@H](O)[C@@H](O)[C@@H]1O` [uridine-diphosphoglucuronic acid], the “improvement of liver function” value (liver function) is listed as “improve certain aspects of liver function”.

In the case of `O=c1ccn([C@@H]2O[C@H](CO)[C@@H](O)[C@H]2O)c(=O)[nH]1` [uridine], the plasma uridine level [3] is listed as “exceeded 10 micromolar”, the “glucose uptake and glycogen synthesis” value [10] is listed as “enhance glucose uptake and glycogen synthesis” and the “degradation of infused uridine” value [11] is listed as “more than 90%”. The glucose uptake [8] was “stimulate glucose uptake”, the glycogen synthesis [8] was “only uridine increased glycogen synthesis” and the “contractability and extensibility of atrial tissue” value (atrial tissue) was “restored”. The “decrease in maximal pressure upon aortic ligation” value (myocardium) was “prevented”, the inotropic effect (isolated dog heart) was “positive inotropic” and the “plasma levels of uridine” value ([12]; mouse, in vivo, po, 350 mg/kg) was “not perturbed”. The “elevation of plasma uridine levels” value ([12]; mouse, in vivo, po, 3500 mg/kg) was “observed only after oral administration of high doses”, the “time to return of plasma uracil to normal” value ([12]; oral uridine, 350 mg/kg) was 4 h and the “incorporation of glucose into glycogen” value (hepatocytes) was “increase”. The “tissue uridine nucleotide pools” value (hepatocytes) was “expanded”, the “myocardial performance, glucose uptake, glycolysis, glycogen and adenine nucleotides” value (isolated rabbit hearts; hypoxic hearts) was “increased myocardial performance, glucose uptake and glycolysis and also diminished the disappearance of glycogen and adenine nucleotides” and the “glucose uptake, glycolysis, ATP and glycogen levels, myocardial performance” value (isolated rabbit hearts; propranolol-treated hearts) was “increased glucose uptake, glycolysis, levels of ATP and glycogen, as well as myocardial performance”. The “rate of incorporation of uridine” value (isolated rat hearts [13]; following low-flow ischemia) was “increased twofold”, the “myocardial uracil nucleotide content” value (isolated rat hearts [13]; perfusion) was “concentration-dependent elevation” and the “protective effect in adrenalin-induced myocardial dystrophy” value [9] was “relatively ineffective”. For the same molecule, the myocardial glycogen (myocardial glycogen) was “restoration of myocardial glycogen”, the lipolysis (adipose tissue) was “inhibited lipolysis” and the supporting myocardial hyperfunction (heart; in vivo) was “relatively ineffective”. The “myocardial heart-pathology benefit of uridine in intact animals” value (heart; intact (alive and free-running) animals) was “no beneficial effect”, the “difference from controls in rats developing hypertrophy of the heart” value (heart; rat, in vivo) was “no difference” and the anticonvulsant effect [14] was “strong protection”. For the same molecule, the “myocardial ATP levels, total adenine nucleotide content, uridine nucleotide levels, glycogen content” value (isolated rat hearts [15]) was “induced restoration”.
